25 compounds from PubChem BioAssay (NCI) can be followed below.

Some test systems named below: SK-MEL-2 melanoma; MDA-MB-435; HL-60(TB) leukemia; NCI-H226 lung; SF-268 CNS; PC-3 prostate; OVCAR-4 ovarian; HOP-62 NSCLC; SR leukemia.
Common to all, as to assay: NCI tumour cell line growth inhibition, 48 h

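Briefly, cells in 96-well plates were exposed to five compound concentrations for 48 h, and endpoints were estimated by linear interpolation. GI50: concentration for 50% inhibition of growth. TGI is the concentration that stops growth completely.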

Take `N#Cc1c(N)n(-c2cccc(C(=O)O)c2)c(=O)c2cc([N+](=O)[O-])ccc12`: the TGI in the assay with SK-MEL-2 melanoma, with MDA-MB-435, with HL-60(TB) leukemia, in the assay on NCI-H226 lung, in the assay on SF-268 CNS and in the assay on PC-3 prostate was more than 100 µM each time. The TGI in the assay on OVCAR-4 ovarian was more than 100 µM.
As to `COc1ccc(C(OCC2OC(n3cc(C)c(=O)[nH]c3=O)CC2n2cc(Cn3cc(Cl)c(=O)[nH]c3=O)nn2)(c2ccccc2)c2ccccc2)cc1` (configuration not stated), the TGI was more than 100 µM in the assay on HOP-62 NSCLC; more than 100 µM with SK-MEL-2 melanoma; more than 100 µM with MDA-MB-435; 6.99 µM with HL-60(TB) leukemia; more than 100 µM with NCI-H226 lung; more than 100 µM with SF-268 CNS. The TGI with PC-3 prostate and in the assay with OVCAR-4 ovarian was more than 100 µM throughout.
Turning to `CSc1nc(Nc2cccc(C(F)(F)F)c2)c2c(N)nn(C)c2n1`, the TGI with HOP-62 NSCLC, with SK-MEL-2 melanoma, in the assay on MDA-MB-435, with NCI-H226 lung, with SF-268 CNS and in the assay on PC-3 prostate was more than 100 µM throughout. The compound also had a TGI in the assay on OVCAR-4 ovarian of more than 100 µM.
Regarding `CN=C(N=Nc1c(O)[nH]c2ccccc12)SCC(=O)c1ccc(Br)cc1`, the TGI was 20.7 µM in the assay with HOP-62 NSCLC; more than 100 µM in the assay with SK-MEL-2 melanoma; more than 42.3 µM with MDA-MB-435; more than 100 µM in the assay on HL-60(TB) leukemia; 48.4 µM in the assay with NCI-H226 lung; more than 48.7 µM in the assay with SF-268 CNS. In addition, the values for the TGI in the assay on PC-3 prostate and with OVCAR-4 ovarian were 29.4 µM and more than 100 µM, respectively.
Take `CCCCCCOC(=O)/C=C/[C@]1(CO)C/C(=C/CC(C(C)C)C(C)C)C(=O)O1`: the TGI amounted to 27.6 µM with HOP-62 NSCLC; 30.7 µM in the assay on SK-MEL-2 melanoma; 15.1 µM with MDA-MB-435; 23.2 µM in the assay on HL-60(TB) leukemia; 16.7 µM in the assay with NCI-H226 lung; 23.5 µM in the assay on SF-268 CNS. Moreover, the values for the TGI with PC-3 prostate and in the assay with OVCAR-4 ovarian were 24.4 µM and 36 µM, respectively.
As for `C=C(C)[C@@H]1CC[C@]2(C(=O)NC3CCCCC3)CC[C@]3(C)[C@H](CC[C@@H]4[C@@]5(C)CCCNC(C)(C)[C@@H]5CC[C@]43C)[C@@H]12`, the GI50 in the assay with SK-MEL-2 melanoma was 1.91 µM; in the assay on MDA-MB-435, 1.7 µM; in the assay with HL-60(TB) leukemia, 2.12 µM; in the assay on NCI-H226 lung, 4.83 µM; in the assay on SF-268 CNS, 5.29 µM. Besides, the TGI in the assay with SK-MEL-2 melanoma is 3.72 µM; with MDA-MB-435, 3.15 µM; in the assay with HL-60(TB) leukemia, 4.61 µM; in the assay with NCI-H226 lung, 36.2 µM; with SF-268 CNS, 26 µM.
`COC(=O)c1cc2ccc(N)nc2[nH]c1=O`: the TGI in the assay on HOP-62 NSCLC, in the assay on SK-MEL-2 melanoma, in the assay with MDA-MB-435, with NCI-H226 lung, in the assay with SF-268 CNS and in the assay on PC-3 prostate was more than 100 µM each time. Also, the TGI in the assay with OVCAR-4 ovarian is more than 100 µM.
As to `S=C(S)NCNC(=S)S.[Zn+2]`, the TGI in the assay with HOP-62 NSCLC, with MDA-MB-435, in the assay on HL-60(TB) leukemia, with SF-268 CNS, with PC-3 prostate and in the assay with OVCAR-4 ovarian was more than 100 µM in each case.
On to `CC1CCC(=O)C(C(=O)CC2CC(=O)N(C)C(=O)C2)C1` (configuration not stated), for which the TGI in the assay with HOP-62 NSCLC, with SK-MEL-2 melanoma, with MDA-MB-435, in the assay with HL-60(TB) leukemia, with NCI-H226 lung and in the assay on SF-268 CNS was more than 100 µM in each case. Further, the TGI with PC-3 prostate and in the assay with OVCAR-4 ovarian was more than 100 µM throughout.
Turning to `O=C(Cn1c[n+](CC(=O)c2ccc(-c3ccccc3)cc2)c2ccccc21)Nc1cccc2cccnc12`, in the assay on NCI-H226 lung, the GI50 is 2.02 µM and the TGI was 7.33 µM. In the assay on PC-3 prostate, the GI50 was 1.03 µM and the TGI is 2.29 µM.
Consider `CC12CC(c3ccccc3O1)C(C(=O)Nc1ccc(Cl)cc1Cl)C(=O)N2` (configuration not stated), for which the TGI in the assay with HOP-62 NSCLC is 48.4 µM; in the assay with SK-MEL-2 melanoma, more than 100 µM; in the assay on MDA-MB-435 it was more than 100 µM; in the assay with HL-60(TB) leukemia, 21.2 µM; in the assay with SF-268 CNS it was more than 100 µM; with PC-3 prostate, more than 100 µM. Moreover, the TGI in the assay with OVCAR-4 ovarian stood at 39.6 µM.
Consider `CC(C)C(=O)OCC1OC(n2c(Br)nc3c(=O)[nH]c(N)nc32)C(OC(=O)C(C)C)C1OC(=O)C(C)C` (configuration not stated), for which the TGI with HOP-62 NSCLC was more than 100 µM; with SK-MEL-2 melanoma, more than 100 µM; with NCI-H226 lung, more than 100 µM; in the assay on SF-268 CNS, more than 100 µM; in the assay on PC-3 prostate it was 62.9 µM; in the assay with SR leukemia, more than 100 µM.
Regarding `Cn1c(=O)c2c(nc(Cc3ccccc3)n2CC(=O)O)n(C)c1=O`, the TGI with HOP-62 NSCLC, with SK-MEL-2 melanoma, with MDA-MB-435, in the assay with NCI-H226 lung, in the assay with SF-268 CNS and with PC-3 prostate was more than 100 µM throughout. Further, the TGI in the assay with OVCAR-4 ovarian was more than 100 µM.
Consider `CCC(C)OC(=O)/C(Br)=C1/OC(=O)c2ccccc2-c2ccccc21` (configuration not stated), for which the TGI was 35.1 µM in the assay with HOP-62 NSCLC; more than 100 µM in the assay on SK-MEL-2 melanoma; more than 100 µM with MDA-MB-435; more than 100 µM in the assay with HL-60(TB) leukemia; more than 100 µM in the assay with NCI-H226 lung; more than 100 µM with SF-268 CNS. Moreover, the TGI in the assay on PC-3 prostate and in the assay on OVCAR-4 ovarian was more than 100 µM in each case.
Regarding `COC(=O)/C=C(\C)CC(O)/C=C(\C)CCC=C(C)C` (configuration not stated), the TGI is more than 100 µM with HOP-62 NSCLC; 73.7 µM with SK-MEL-2 melanoma; 46.2 µM in the assay on HL-60(TB) leukemia; more than 100 µM with NCI-H226 lung; more than 100 µM with PC-3 prostate; more than 100 µM in the assay on OVCAR-4 ovarian. In the assay with SR leukemia, this compound came in with a TGI of 68.2 µM.
Consider `COc1ccc(S(=O)(=O)c2nnc(S(=O)(=O)Cc3ccccc3)s2)cc1`, for which the TGI with HOP-62 NSCLC is 75.5 µM; in the assay on SK-MEL-2 melanoma it was 45.1 µM; in the assay with MDA-MB-435, 71.8 µM; in the assay on SF-268 CNS it was more than 100 µM; in the assay on PC-3 prostate it was 47.7 µM; in the assay with OVCAR-4 ovarian, more than 100 µM.
As for `CC1CCC(C(C)C)C(OC(=O)NCn2cc(-c3ccccc3)nn2)C1` (configuration not stated), the TGI in the assay with HOP-62 NSCLC, with SK-MEL-2 melanoma, in the assay on HL-60(TB) leukemia, with NCI-H226 lung, in the assay with SF-268 CNS and in the assay with PC-3 prostate was more than 100 µM in each case. Further, the TGI in the assay on OVCAR-4 ovarian and in the assay with SR leukemia was more than 100 µM in each case.
Turning to `Cc1cc(S(=O)(=O)Nc2n[nH]c(N)n2)c(SCC(=O)O)cc1Cl`, the TGI in the assay with HOP-62 NSCLC, in the assay on SK-MEL-2 melanoma, in the assay on HL-60(TB) leukemia, in the assay on NCI-H226 lung, in the assay on SF-268 CNS and with PC-3 prostate was more than 10 µM in each case. Also, the TGI with OVCAR-4 ovarian and in the assay on SR leukemia was more than 10 µM throughout.
For `O=C(Nc1nc(C23CC4CC(CC(C4)C2)C3)cs1)c1cc2ccc(O)cc2oc1=O`, the TGI in the assay with HOP-62 NSCLC stood at 36.8 µM; with MDA-MB-435 it was 31.8 µM; in the assay on HL-60(TB) leukemia, 34.6 µM; in the assay with NCI-H226 lung, 49 µM; with SF-268 CNS it was 39.9 µM; in the assay with PC-3 prostate, 35.4 µM. In the assay on OVCAR-4 ovarian, the TGI came out at 44 µM.
Turning to `C[C@H](CCC(=O)O)[C@H]1CC[C@H]2[C@@H]3CC[C@@H]4C[C@H](O)CC[C@]4(C)[C@H]3C[C@H](O)[C@]12C`, the TGI is 78.6 µM in the assay on HOP-62 NSCLC; more than 100 µM in the assay on SK-MEL-2 melanoma; more than 100 µM in the assay on MDA-MB-435; 67.1 µM in the assay with HL-60(TB) leukemia; more than 100 µM with NCI-H226 lung; more than 100 µM in the assay with SF-268 CNS. In addition, the TGI with PC-3 prostate and in the assay with OVCAR-4 ovarian was more than 100 µM each time.
As for `CN(C)C1(N(C)C)Oc2c(c(=O)n(C)c(=O)n2C)C(c2ccccc2)C1(F)F` (configuration not stated), the TGI with HOP-62 NSCLC, in the assay on SK-MEL-2 melanoma, with MDA-MB-435, with NCI-H226 lung, with SF-268 CNS and in the assay with PC-3 prostate was more than 100 µM throughout. For the same compound, in the assay with OVCAR-4 ovarian, the TGI is more than 100 µM.
As for `c1ccc(CCNc2ccccn2)nc1`, the TGI with HOP-62 NSCLC, in the assay with SK-MEL-2 melanoma, with MDA-MB-435, in the assay with HL-60(TB) leukemia, with NCI-H226 lung and with SF-268 CNS was more than 100 µM throughout. In addition, the TGI in the assay with PC-3 prostate and with OVCAR-4 ovarian was more than 100 µM throughout.
Consider `Cc1cc2oc(=N)c(C#N)c(C)c2cc1C`, for which the TGI with HOP-62 NSCLC, in the assay on SK-MEL-2 melanoma, in the assay with MDA-MB-435, in the assay on HL-60(TB) leukemia, in the assay on NCI-H226 lung and in the assay with SF-268 CNS was more than 100 µM each time. Besides, the TGI with PC-3 prostate and in the assay with OVCAR-4 ovarian was more than 100 µM throughout.
As to `CCCCNC(=S)Nc1nc(C(=O)NNC(=S)Nc2ccccc2)cs1`, the TGI in the assay with HOP-62 NSCLC, in the assay with SK-MEL-2 melanoma, in the assay on MDA-MB-435, in the assay on NCI-H226 lung, in the assay on SF-268 CNS and in the assay with PC-3 prostate was more than 100 µM each time. In the assay with OVCAR-4 ovarian, this compound returned a TGI of more than 100 µM.
On to `COc1ccc(-[n+]2nc(S(=O)(=O)O)c(/C=C/c3ccc(N(C)C)cc3)cc2C#N)cc1`, for which the TGI in the assay with HOP-62 NSCLC, in the assay on SK-MEL-2 melanoma, in the assay with MDA-MB-435, in the assay with NCI-H226 lung, in the assay on SF-268 CNS and with PC-3 prostate was more than 100 µM each time. Further, the TGI in the assay with OVCAR-4 ovarian is more than 100 µM.
